{
  "source": "paper PMC5378956",
  "about": "“Inhibition of delta-secretase improves cognitive functions in mouse models of Alzheimer's disease” (Nature Communications, 2017)",
  "key": {"[1]": {"target": "CYP2D6 (Homo sapiens, UniProt P10635)", "sequence (P10635 whole entry)": "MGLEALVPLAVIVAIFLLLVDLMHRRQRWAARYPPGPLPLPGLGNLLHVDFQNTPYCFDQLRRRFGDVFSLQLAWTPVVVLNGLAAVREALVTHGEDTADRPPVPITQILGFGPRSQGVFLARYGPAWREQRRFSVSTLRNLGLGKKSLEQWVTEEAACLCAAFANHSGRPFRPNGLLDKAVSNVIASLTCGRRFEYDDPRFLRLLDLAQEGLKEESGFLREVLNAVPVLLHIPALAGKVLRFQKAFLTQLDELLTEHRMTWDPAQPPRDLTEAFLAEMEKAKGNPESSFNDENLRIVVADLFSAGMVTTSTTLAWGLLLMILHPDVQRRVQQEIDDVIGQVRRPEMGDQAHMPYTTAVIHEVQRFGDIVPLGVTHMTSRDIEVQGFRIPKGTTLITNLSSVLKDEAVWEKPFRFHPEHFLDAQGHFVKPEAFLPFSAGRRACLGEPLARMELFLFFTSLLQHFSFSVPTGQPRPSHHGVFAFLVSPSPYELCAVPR", "experiment": "CYP inhibition screening in microsomes", "details": "pH 7.4"}, "[2]": {"experiment": "Caco-2 monolayer permeability screen", "details": "human, Caco-2", "method": "(§1) Supplementary Table 3: Caco-2 permeability and BBB-PAMPA permeability\n(§2) For CaCo-2 permeability assay, cells were incubated with 10 µM of these reagents in\n(§3) buffers for 2 h, and the receiver side buffer is removed for analysis by LC/MS/MS. Efflux […]\n(§4) LLOQ: Lower Limit of Quantification; Papp: apparent permeability."}, "[3]": {"target": "cathepsin-L (Homo sapiens, UniProt P07711)", "sequence (P07711 114-333, species assumed)": "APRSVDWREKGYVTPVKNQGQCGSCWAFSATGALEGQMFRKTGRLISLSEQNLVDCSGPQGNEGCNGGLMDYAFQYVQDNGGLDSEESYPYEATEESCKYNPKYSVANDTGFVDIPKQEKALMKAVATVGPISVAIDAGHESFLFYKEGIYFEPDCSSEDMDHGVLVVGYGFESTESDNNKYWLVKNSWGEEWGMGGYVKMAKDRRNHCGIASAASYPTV", "experiment": "IC50 assay with cathepsin-L", "assay_type": "biochemical", "details": "mean±s.d.", "method": "Cathepsin-L – 100 nM enzyme was pre-incubated with inhibitor in assay buffer (100 mM Sodium Acetate pH 5.5, 1 mM EDTA) for 10 min at 37 °C. The reaction was initiated on addition of 25 μM substrate (D-Val-Leu-Lys-AMC (Bachem).\n(§5) To determine the IC50 values of the compounds towards δ-secretase, cathepsin-S, cathepsin-L, caspase-3 and caspase-8, purified recombinant enzyme was incubated in appropriate assay buffers in the presence of increasing concentrations of inhibitors. The formation of fluorescent product was monitored in duplicate reactions and the data were fit to appropriate equations to calculate the IC50 values."}, "[4]": {"target": "T1, caspase-3 (Homo sapiens, UniProt P42574)", "T1 construct": "purchased Millipore (Billerica, MA)", "T1 sequence (P42574 29-175 limits assumed)": "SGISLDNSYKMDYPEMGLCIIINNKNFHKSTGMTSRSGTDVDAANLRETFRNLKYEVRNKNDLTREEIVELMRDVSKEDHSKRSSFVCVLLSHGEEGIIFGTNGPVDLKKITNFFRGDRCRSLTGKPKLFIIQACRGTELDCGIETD", "T1 sequence (P42574 176-277 limits assumed)": "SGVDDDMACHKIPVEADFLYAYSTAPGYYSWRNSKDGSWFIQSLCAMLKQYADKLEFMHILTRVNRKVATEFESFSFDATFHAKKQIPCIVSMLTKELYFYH", "experiment": "IC50 assay with recombinant caspase-3", "assay_type": "biochemical", "details": "mean±s.d.", "method": "Caspase-3 and 8 – The enzyme was pre-incubated with inhibitor in assay buffer (100 mM HEPES pH 7.4, 0.1% CHAPS, 10% Sucrose) for 10 min at 37 °C.\nas §5"}, "[5]": {"target": "CYP2C19 (Homo sapiens, UniProt P33261)", "sequence (P33261 whole entry)": "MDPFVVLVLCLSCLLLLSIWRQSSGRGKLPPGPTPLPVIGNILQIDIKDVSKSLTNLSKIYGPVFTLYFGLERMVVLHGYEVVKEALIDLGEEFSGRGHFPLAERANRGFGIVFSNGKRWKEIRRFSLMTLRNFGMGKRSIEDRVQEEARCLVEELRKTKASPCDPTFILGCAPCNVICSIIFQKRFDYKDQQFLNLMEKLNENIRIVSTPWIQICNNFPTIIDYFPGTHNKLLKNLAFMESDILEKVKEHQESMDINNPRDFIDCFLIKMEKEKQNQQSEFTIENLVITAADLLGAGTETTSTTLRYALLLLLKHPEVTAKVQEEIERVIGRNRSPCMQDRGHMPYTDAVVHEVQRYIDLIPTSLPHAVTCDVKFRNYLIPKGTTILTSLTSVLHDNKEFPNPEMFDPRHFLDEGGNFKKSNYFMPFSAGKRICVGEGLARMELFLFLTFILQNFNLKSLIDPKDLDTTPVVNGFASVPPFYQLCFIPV", "experiment": "CYP inhibition screening in microsomes", "details": "pH 7.4"}, "[6]": {"system": "CYP3A", "experiment": "CYP inhibition screening in microsomes", "details": "human"}, "[7]": {"target": "CYP3A4 (Homo sapiens, UniProt P08684)", "sequence (P08684 whole entry)": "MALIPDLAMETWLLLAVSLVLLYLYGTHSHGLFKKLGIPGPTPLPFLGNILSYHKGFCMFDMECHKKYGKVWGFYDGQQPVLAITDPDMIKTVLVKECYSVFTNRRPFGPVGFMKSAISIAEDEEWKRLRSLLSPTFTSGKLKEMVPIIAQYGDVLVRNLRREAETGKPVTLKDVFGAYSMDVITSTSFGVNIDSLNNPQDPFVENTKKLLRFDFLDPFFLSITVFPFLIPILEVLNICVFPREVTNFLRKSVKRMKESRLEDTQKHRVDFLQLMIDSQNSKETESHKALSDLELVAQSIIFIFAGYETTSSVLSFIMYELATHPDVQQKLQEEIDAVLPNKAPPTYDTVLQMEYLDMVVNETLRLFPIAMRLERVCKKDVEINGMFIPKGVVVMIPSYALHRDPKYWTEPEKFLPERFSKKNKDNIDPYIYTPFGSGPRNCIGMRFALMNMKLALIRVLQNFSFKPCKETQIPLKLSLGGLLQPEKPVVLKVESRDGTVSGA", "experiment": "CYP inhibition screening in microsomes", "details": "pH 7.4, probe midazolam"}, "[8]": {"system": "Caco-2 monolayer", "experiment": "Caco-2 monolayer permeability screen", "method": "as §1, §2, §3, §4"}, "[9]": {"experiment": "Redox potential, horseradish peroxidase-phenol red assay (H2O2 production)"}, "[10]": {"experiment": "NMR stability and thiol reactivity (cysteamine, β-mercaptoethanol)", "assay_type": "physicochemical"}, "[11]": {"system": "5XFAD mice", "details": "5 or 10 mg kg-1 oral; 1, 2, 4 h"}, "[12]": {"system": "primary neurons", "experiment": "LDH release of primary neurons after OGD", "assay_type": "cell-based, mouse"}},
  "note": "Entries after “also recorded” stand apart in the source; their conditions may differ.",
  "data": [
    {"smiles": "Cc1cccc(NCc2ccc(O)c3ncccc23)c1C", "note": "[compound 12]", "values": [
      {"measurement": "inhibition at 10 min, 3 µM", "setting": "[1]", "result": 2.9, "unit": "%"},
      {"measurement": "inhibition at 10 min, 10 µM", "setting": "[1]", "result": -2.6, "unit": "%"},
      {"measurement": "Papp A→B at 2 h, 10 µM", "setting": "[2]", "result": 1.4, "unit": "×10⁻⁶ cm/s"},
      {"measurement": "Papp B→A at 2 h, 10 µM", "setting": "[2]", "result": 3.7, "unit": "×10⁻⁶ cm/s"},
      {"measurement": "efflux ratio at 2 h, 10 µM", "setting": "[2]", "result": 2.7},
      {"measurement": "IC50", "setting": "[3]", "result": "> 200", "unit": "µM"},
      {"measurement": "IC50", "setting": "[4]", "result": "> 200", "unit": "µM"},
      {"measurement": "inhibition at 10 min, 3 µM", "setting": "[5]", "result": 13.4, "unit": "%"},
      {"measurement": "inhibition at 10 min, 10 µM", "setting": "[5]", "result": 29.4, "unit": "%"},
      {"measurement": "inhibition at 10 min, 3 µM", "setting": "[6]; pH 7.4, probe testosterone", "result": 14.2, "unit": "%"},
      {"measurement": "inhibition at 10 min, 10 µM", "setting": "[6]; pH 7.4, probe testosterone", "result": 27.6, "unit": "%"},
      {"measurement": "inhibition at 10 min, 3 µM", "setting": "[7]", "result": -2.5, "unit": "%"},
      {"measurement": "inhibition at 10 min, 10 µM", "setting": "[7]", "result": -2.5, "unit": "%"}
    ]},
    {"smiles": "Cn1c(=O)[nH]c(=O)c2c1nc(S)n2CC(O)COc1ccc(Cl)cc1", "note": "(stereo not drawn) [compound 38]", "values": [
      {"measurement": "inhibition at 10 min, 3 µM", "setting": "[1]", "result": -5.4, "unit": "%"},
      {"measurement": "inhibition at 10 min, 10 µM", "setting": "[1]", "result": 0.9, "unit": "%"},
      {"measurement": "Papp A→B at 2 h, 10 µM", "setting": "[2]", "result": 1.1, "unit": "×10⁻⁶ cm/s"},
      {"measurement": "Papp B→A at 2 h, 10 µM", "setting": "[2]", "result": 20.3, "unit": "×10⁻⁶ cm/s"},
      {"measurement": "efflux ratio at 2 h, 10 µM", "setting": "[2]", "result": 18.2},
      {"measurement": "IC50", "setting": "[3]", "result": "> 200", "unit": "µM"},
      {"measurement": "IC50", "setting": "[4]", "result": "29.7 ± 4.68", "unit": "µM"},
      {"measurement": "inhibition at 10 min, 3 µM", "setting": "[5]", "result": -12, "unit": "%"},
      {"measurement": "inhibition at 10 min, 10 µM", "setting": "[5]", "result": 9.5, "unit": "%"},
      {"measurement": "inhibition at 10 min, 3 µM", "setting": "[6]; pH 7.4, probe testosterone", "result": -6, "unit": "%"},
      {"measurement": "inhibition at 10 min, 10 µM", "setting": "[6]; pH 7.4, probe testosterone", "result": 2.4, "unit": "%"},
      {"measurement": "inhibition at 10 min, 3 µM", "setting": "[7]", "result": 7.3, "unit": "%"},
      {"measurement": "inhibition at 10 min, 10 µM", "setting": "[7]", "result": 10.4, "unit": "%"}
    ]},
    {"smiles": "Nc1ccc(N2CCOCC2)c2nonc12", "note": "[compound 11, 7-(morpholin-4-yl)-2,1,3-benzoxadiazol-4-amine]", "values": [
      {"measurement": "inhibition at 10 min, 3 µM", "setting": "[1]", "result": 7.8, "unit": "%"},
      {"measurement": "inhibition at 10 min, 10 µM", "setting": "[1]", "result": 21.9, "unit": "%"},
      {"measurement": "Papp A→B at 2 h, 10 µM", "setting": "[2]", "result": 35, "unit": "×10⁻⁶ cm/s"},
      {"measurement": "Papp B→A at 2 h, 10 µM", "setting": "[2]", "result": 7, "unit": "×10⁻⁶ cm/s"},
      {"measurement": "Caco-2 permeability in words", "setting": "[8]", "result": "highly permeable"},
      {"measurement": "IC50", "setting": "[3]", "result": "> 200", "unit": "µM"},
      {"measurement": "production of H2O2 (redox potential)", "setting": "[9]", "result": "none of them produced H2O2"},
      {"measurement": "IC50", "setting": "[4]", "result": "31.9 ± 1.94", "unit": "µM"},
      {"measurement": "inhibition at 10 min, 3 µM", "setting": "[5]", "result": 4.4, "unit": "%"},
      {"measurement": "inhibition at 10 min, 10 µM", "setting": "[5]", "result": 6.8, "unit": "%"},
      {"measurement": "reaction with β-mercaptoethanol", "setting": "[10]", "result": "did not react; also recorded: unreactive"},
      {"measurement": "stability by NMR spectroscopy", "setting": "[10]; presence or absence of cysteamine", "result": "stable"},
      {"measurement": "concentrations of Aβ in plasma and brain after single dose", "setting": "[11]", "result": "time- and dose-dependently decreased"},
      {"measurement": "inhibition at 10 min, 3 µM", "setting": "[6]; pH 7.4", "result": 4.1, "unit": "%"},
      {"measurement": "inhibition at 10 min, 10 µM", "setting": "[6]; pH 7.4", "result": 21.6, "unit": "%"},
      {"measurement": "OGD-induced cell toxicity in neurons from 5XFAD or tau P301S mice", "setting": "[12]; cultured neurons from 5XFAD mice or tau P301S mice", "result": "attenuated OGD-induced cell toxicity"},
      {"measurement": "neuronal injury induced by OGD in δ-secretase knockout neurons", "setting": "[12]; neurons from δ-secretase knockout mice", "result": "did not further protect"},
      {"measurement": "neuronal injury (LDH in medium) induced by OGD", "setting": "[12]; wild-type neurons", "result": "attenuated neuronal injury"},
      {"measurement": "inhibition at 10 min, 3 µM", "setting": "[7]", "result": 3.6, "unit": "%"},
      {"measurement": "inhibition at 10 min, 10 µM", "setting": "[7]", "result": 8, "unit": "%"}
    ]},
    {"smiles": "COc1ccc(N2CCN(C(c3ccc(N(C)C)cc3)c3nnnn3C(C)(C)C)CC2)cc1", "note": "(stereo not drawn) [compound 31]", "values": [
      {"measurement": "inhibition at 10 min, 3 µM", "setting": "[1]", "result": 9.9, "unit": "%"},
      {"measurement": "inhibition at 10 min, 10 µM", "setting": "[1]", "result": 1.4, "unit": "%"},
      {"measurement": "Papp A→B at 2 h, 10 µM", "setting": "[2]", "result": 19.3, "unit": "×10⁻⁶ cm/s"},
      {"measurement": "Papp B→A at 2 h, 10 µM", "setting": "[2]", "result": 17.4, "unit": "×10⁻⁶ cm/s"},
      {"measurement": "efflux ratio at 2 h, 10 µM", "setting": "[2]", "result": 0.9},
      {"measurement": "Caco-2 permeability in words", "setting": "[8]", "result": "highly permeable"},
      {"measurement": "IC50", "setting": "[3]", "result": "1.3 ± 0.39", "unit": "µM"},
      {"measurement": "IC50", "setting": "[4]", "result": "> 100", "unit": "µM"},
      {"measurement": "inhibition at 10 min, 3 µM", "setting": "[5]", "result": 37.7, "unit": "%"},
      {"measurement": "inhibition at 10 min, 10 µM", "setting": "[5]", "result": 55.7, "unit": "%"},
      {"measurement": "inhibition at 10 min, 3 µM", "setting": "[6]; pH 7.4, probe testosterone", "result": 2.5, "unit": "%"},
      {"measurement": "inhibition at 10 min, 10 µM", "setting": "[6]; pH 7.4, probe testosterone", "result": 0.7, "unit": "%"},
      {"measurement": "inhibition at 10 min, 3 µM", "setting": "[7]", "result": -0.9, "unit": "%"},
      {"measurement": "inhibition at 10 min, 10 µM", "setting": "[7]", "result": 18.1, "unit": "%"}
    ]}
  ]
}
